The record followed here is US12558320B2, “Method of preparing a solid dosage form and a lubricant” (Evonik Operations GmbH, priority 2019, dated 2026).

A short description of this data set: Quantification of stearic acid and palmitic acid in water after homogenization, centrifugation and filtration. The data set is classed as physicochemical. The procedure: For the quantification of stearic acid and palmitic acid in water from magnesium stearate alone 1 mg magnesium stearate was added in water under high shear homogenization and mixed for 15 min under continuous homogenization. After homogenization, the prepared dispersion was centrifuged to remove bigger particle size. The supernatant solution was then filtered through 0.2-micron nylon syringe filter and the filtrate was analyzed for content of stearic acid and palmitic acid. […] After homogenization, the prepared dispersion was centrifuged to remove bigger particle size. The supernatant solution was then filtered through 0.45 μm (B1) or 0.2 μm (B2) nylon syringe filter and the filtrate were analyzed for content of stearic acid and palmitic acid.

Where the note is “powder, unfiltered”, Magnesium stearate came in with a Palmitic acid of 49.35 % w/w and a Stearic acid of 50.64 % w/w. Where the note is “water, 0.2 μm filtered”, the Palmitic acid turned out to be 2.91 % w/w, the Stearic acid came out at 0.00 % w/w and the “Total fatty acid in media” value is 2.91%.
